Values joined by “and” are separate entries in the source; they are usually repeats but may differ in a detail not shown here. Equal entries are not always repeated. Where two headings read alike, the source gives them in different places.
Assay: First-in-human clinical study: plasma and whole blood PK of INX-315 (oral QD, ASD tablet)
Format: in vivo
Set-up: AUC Plasma / AUC Whole Blood: unit not given here
Text: All INX-315 tablets were taken at approximately the same time(s) each day.
Samples will also be collected pre-dose on Cycle 1 Days 2, 8, 16, and Day 22, and pre-dose on Day 1 of each subsequent cycle.
Standard non-compartmental PK parameters were estimated.
Geometric mean and geometric CV % will be included in the summary statistics.
PK parameters will be summarized descriptively by dosing cohort. AUC and Cmax values will also be presented in scatter plots. Dose proportionality will be assessed for AUC and Cmax using a power model. The 90% CI of the slope for each PK parameter will be estimated from the model and presented in a summary table.
Cohort 1 enrollment of 6 subjects dosed at 100 mg oral QD was completed in October of 2023.
Patients were upgraded to the 200 mg QD dose level and PK/PD plasma parameters were measured (FIG. 18A).
Patients were administered the 200 mg QD and 300 mg QD dose levels and PK/PD plasma parameters were measured.

[1] = Cohort 1 (100 mg QD), Day 1, individual subjects
[2] = Cohort 1 (100 mg QD), Day 15, individual subjects
[3] = Cohort 2 (200 mg QD), Day 1, individual subjects
[4] = Cohort 2 (200 mg QD), Day 15, individual subjects
[5] = Cohort 3 (300 mg QD), Day 1, individual subjects

NS(=O)(=O)c1ccc(Nc2ncc3cc4n(c3n2)C2(CCCCC2)C(=O)NN4)cc1 [INX-315]
Mean free plasma trough concentration (100 mg QD, C 1 D 1 (Day 1)): 2.98 (6) ng/mL and 2.98 ng/mL
Mean free plasma trough concentration (100 mg QD, C 1 D 7 (Day 7)): 5.7 (6) ng/mL and 5.71 ng/mL
Mean free plasma trough concentration (100 mg QD, C 1 D 14): 4.72 ng/mL
Mean free plasma trough concentration (100 mg QD, C 1 D 15): 5.43 ng/mL
Mean free plasma trough concentration (100 mg QD, C 1 D 21): 4.72 ng/mL
Mean free plasma trough concentration (100 mg QD, C 2 D 1): 4.32 ng/mL
Mean free plasma trough concentration (100 mg QD, C 3 D 1): 4.27 ng/mL
Mean free plasma trough concentration (100 mg QD, C 4 D 1): 5.91 ng/mL
Mean free plasma trough concentration (200 mg QD, C 1 D 1 (Day 1)): 7.3 (2) ng/mL and 7.31 ng/mL
Mean free plasma trough concentration (200 mg QD, C 1 D 7 (Day 7)): 10.2 (2) ng/mL and 10.16 ng/mL
AUC Plasma [1]: 2532 and 1886 and 3391 and 2271 and 3370 and 640.8
AUC Whole Blood [1]: 44857 and 38499 and 41732 and 33139 and 60740 and 13440
AUC Plasma [2]: 1276 and 5858 and 3444 and 6910 and 1951
AUC Whole Blood [2]: 37642 and 44316 and 118285 and 31754
time to steady state trough concentrations (Cohort 1, 100 mg QD): ≤ 7 days
AUC Plasma [3]: 4955 and 7528 and 11982 and 19801
AUC Whole Blood [3]: 132257 and 94340 and 131625
AUC Plasma [4]: 6987 and 6286 and 18669 and 13618
AUC Whole Blood [4]: 94895 and 236613 and 183345 and 112733
AUC Plasma [5]: 12111 and 11382 and 8338 and 11173
AUC Whole Blood [5]: 149733 and 88350 and 116734 and 106858
half-life (human, plasma and whole blood, oral, 100 mg, preliminary data of the expanded cohort 1, 100 mg QD, read-out: t1/2 (converted)): ≥ 12 h
concentration at 0.5 h (human, plasma, oral, 100 mg, 100 mg QD (n = 6), 0.5 hr): 18.9 ng/mL
concentration at 1 h (human, plasma, oral, 100 mg, 100 mg QD (n = 6), 1.0 hr): 71.4 ng/mL
concentration at 2 h (human, plasma, oral, 100 mg, 100 mg QD (n = 6), 2.0 hr): 158 ng/mL
concentration at 6 h (human, plasma, oral, 100 mg, 100 mg QD (n = 6), 6.0 hr): 132 ng/mL
concentration at 8 h (human, plasma, oral, 100 mg, 100 mg QD (n = 6), 8.0 hr): 121 ng/mL
concentration at 24 h (human, plasma, oral, 100 mg, 100 mg QD (n = 6), […], read-out: Mean plasma concentration): 57.4 ng/mL
AUC (human, plasma, oral, 100 mg, plasma, 100 mg QD (n = 6), read-out: Total Area (AUC)): 2400 ng·h/mL
Cmax (human, plasma, oral, 100 mg, plasma, 100 mg QD, Day 1 (Example 10), read-out: Cmax): 148 ng/mL
AUC(0-t) (human, plasma, oral, 100 mg, plasma, 100 mg QD, Day 1, Cohort 1 (Table 27), read-out: AUClast, geometric mean): 2640 ng·h/mL
Cmax (human, plasma, oral, 100 mg, plasma, 100 mg QD, Day 1, Cohort 1 (Table 27), read-out: Cmax, geometric mean): 193 ng/mL
Tmax (human, plasma, oral, 100 mg, plasma, 100 mg QD, Day 1, Cohort 1 (Table 27), read-out: Tmax, median): 2 h
half-life (human, plasma, oral, 100 mg, plasma, 100 mg QD, Day 1, Cohort 1 (Table 27), read-out: t1/2, geometric mean (converted)): 12.6 h
AUC (human, plasma, oral, 100 mg, plasma, 100 mg QD, Day 1, average of five human patients (Example 10), read-out: AUC): 2020 ng·h/mL
AUC(0-t) (human, plasma, oral, 100 mg, plasma, 100 mg QD, Day 1, individual patients, read-out: AUClast): 3490 ng·h/mL
half-life (human, plasma, oral, 100 mg, plasma, 100 mg QD, Day 1, individual patients, read-out: t1/2 (converted)): 15.1 h
AUC (human, plasma, oral, 100 mg, plasma, 100 mg QD, Day 1 observed, mean of first two patients, read-out: AUC): 3450 ng·h/mL
Cmax (human, plasma, oral, 100 mg, plasma, 100 mg QD, Day 1 observed, mean of first two patients, read-out: Cmax): 196 ng/mL
concentration at 1 day (human, plasma, oral, 100 mg, plasma, 100 mg QD, Day 1 observed, mean of first two patients, read-out: Cmin): 103 ng/mL
concentration at 1 day (human, plasma, oral, 100 mg, plasma, 100 mg QD, Day 1 observed, mean of first two patients, read-out: Cmin^free): 5.4 ng/mL
AUC (human, plasma, oral, 100 mg, plasma, 100 mg QD, Day 15 (Example 10), read-out: AUC): 3290 ng·h/mL
Cmax (human, plasma, oral, 100 mg, plasma, 100 mg QD, Day 15 (Example 10), read-out: Cmax): 211 ng/mL
AUC(0-t) (human, plasma, oral, 100 mg, plasma, 100 mg QD, Day 15, individual patients, read-out: AUClast): 7240 ng·h/mL
Cmax (human, plasma, oral, 100 mg, plasma, 100 mg QD, Day 15, individual patients, read-out: Cmax): 457 ng/mL
half-life (human, plasma, oral, 100 mg, plasma, 100 mg QD, Day 15, individual patients, read-out: t1/2 (converted)): 17 h
AUC (human, plasma, oral, 100 mg, plasma, 100 mg QD, Day 15 observed, mean of first two patients, read-out: AUC): 6580 ng·h/mL
Cmax (human, plasma, oral, 100 mg, plasma, 100 mg QD, Day 15 observed, mean of first two patients, read-out: Cmax): 408 ng/mL
concentration at 15 day (human, plasma, oral, 100 mg, plasma, 100 mg QD, Day 15 observed, mean of first two patients, read-out: Cmin): 177 ng/mL

— patent US20260041640A1 (INCYCLIX BIO, LLC, priority 2023, published 2026)
